Data set [1] can be described thus: In-vitro dissolution of tablets, Ph. Eur. 2.9.3 / USP <711> Method 2 (Paddle Apparatus). It is filed as physicochemical. As to conditions: Figures 2 and 3; same excipient mixture as example 1. The method, then:
The in-vitro dissolution of tablets according to examples 2 to 5 were analyzed according to Ph. […]

Data set [2] is described as follows: Solubility of crystalline modifications of Febuxostat in phosphate buffer. It is filed as physicochemical.

The results in this text go back to patent publication EP3002006A1, “Pharmaceutical composition capable for the incorporation Febuxostat in the crystalline modifications F10, II, G and A” (Bluepharma - Industria Farmacêutica, S.A., priority 2014, dated 2016).

Values after ≈ are worked out from the molar mass of the structure shown. Like-named read-outs stand apart in the source and are kept apart here.

As to `Cc1nc(-c2ccc(OCC(C)C)c(C#N)c2)sc1C(=O)O` [Form "G", 2-[3-cyano-4-(2-methylpropoxy)phenyl]-4-methylthiazole-5-carboxylic acid], in data set [1], the “influence on dissolution profile of interchange of crystalline form F10 by another crystalline form” value was “does not influence the dissolution profile significantly”. Also, the Solubility in data set [2] (n=3) is given as 0,13 mg/ml.
Turning to `Cc1nc(-c2ccc(OCC(C)C)c(C#N)c2)sc1C(=O)O` [Form "F10", 2-[3-cyano-4-(2-methylpropoxy)phenyl]-4-methylthiazole-5-carboxylic acid], the Solubility in data set [2] (aqueous buffer, n=3, read-out: Solubility) stood at 260 µg/mL (≈ 822 µM).
In the case of `Cc1nc(-c2ccc(OCC(C)C)c(C#N)c2)sc1C(=O)O` [Form "A", 2-[3-cyano-4-(2-methylpropoxy)phenyl]-4-methylthiazole-5-carboxylic acid], the “influence on dissolution profile of interchange of crystalline form F10 by another crystalline form” value in data set [1] is on record as “does not influence the dissolution profile significantly”. The Solubility in data set [2] (n=3) is reported as 0,10 mg/ml.
On the same counts, the results for `Cc1nc(-c2ccc(OCC(C)C)c(C#N)c2)sc1C(=O)O` [Form "II", 2-[3-cyano-4-(2-methylpropoxy)phenyl]-4-methylthiazole-5-carboxylic acid] are “does not influence the dissolution profile significantly” and 0,36 mg/ml.
